The record followed here is US9587005B2 (priority 2010, dated 2017).

What all share (assay type): cell-based
Assay [1] deals with T1, glucagon receptor (Homo sapiens, UniProt P47871).
T1 construct: expressed in transfected cells; host or cells: HEK293
The assay can be described thus: cAMP induction, firefly luciferase reporter assay in HEK293 cells co-transfected with glucagon receptor. As to conditions: for GR relative activity: Table 3, relative to the activity of the native hormone. The text has this: (§1) This example describes an exemplary method of testing the biological activity of the peptides of the present disclosures, which method involves assaying cAMP synthesis.
Background: A reporter such as luciferase makes a cellular process visible.

In assay [2] the target is T2, GLP-1 receptor (Homo sapiens, UniProt P43220).
T2 construct: expressed in transfected cells; host or cells: HEK293
T2 sequence (P43220 24-463): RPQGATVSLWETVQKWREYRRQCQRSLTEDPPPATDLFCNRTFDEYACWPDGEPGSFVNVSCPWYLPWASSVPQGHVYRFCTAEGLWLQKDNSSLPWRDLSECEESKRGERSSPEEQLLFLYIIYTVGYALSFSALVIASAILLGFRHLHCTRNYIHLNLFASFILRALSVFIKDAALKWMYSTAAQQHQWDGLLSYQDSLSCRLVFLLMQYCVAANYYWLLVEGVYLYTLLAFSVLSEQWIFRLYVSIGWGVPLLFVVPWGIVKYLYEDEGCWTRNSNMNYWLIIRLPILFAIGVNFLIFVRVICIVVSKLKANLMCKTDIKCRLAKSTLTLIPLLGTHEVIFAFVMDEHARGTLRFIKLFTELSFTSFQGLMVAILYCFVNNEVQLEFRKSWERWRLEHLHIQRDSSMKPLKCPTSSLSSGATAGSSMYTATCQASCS
Briefly: cAMP induction, firefly luciferase reporter assay in HEK293 cells co-transfected with GLP-1 receptor. The note with it: for GLP-1R relative activity: Table 3, relative to the activity of the native hormone.
Description: as §1

Assay [3] addresses T3, GIP receptor (Homo sapiens, UniProt P48546).
T3 sequence (P48546 22-466): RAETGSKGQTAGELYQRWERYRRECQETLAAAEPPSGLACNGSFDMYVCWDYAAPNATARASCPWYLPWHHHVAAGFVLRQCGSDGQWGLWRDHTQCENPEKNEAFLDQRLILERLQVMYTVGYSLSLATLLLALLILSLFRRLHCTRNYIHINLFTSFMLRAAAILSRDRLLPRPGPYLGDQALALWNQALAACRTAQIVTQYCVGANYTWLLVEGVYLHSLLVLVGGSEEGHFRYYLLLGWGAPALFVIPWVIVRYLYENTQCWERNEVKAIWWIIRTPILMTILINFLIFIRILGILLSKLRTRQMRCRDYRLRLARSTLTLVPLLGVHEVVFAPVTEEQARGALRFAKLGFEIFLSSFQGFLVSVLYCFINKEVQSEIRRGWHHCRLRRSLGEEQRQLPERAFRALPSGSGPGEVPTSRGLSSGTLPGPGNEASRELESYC
The assay can be described thus: cAMP induction, firefly luciferase reporter assay in HEK293 cells co-transfected with GIP receptor. The note with it: for GIPR relative activity: Table 3, relative to the activity of the native hormone.

The mark [4] stands for this setting: Table 3, Example 8, read-out: GLP-1R EC50.
Where [5] appears, read: Table 3, Example 8, read-out: GIPR EC50.
[6] abbreviates: Glucagon Receptor EC50, Table 10, Example 16.
[7] abbreviates: GLP-1 Receptor EC50, Table 10, Example 16.
[8] abbreviates: Table 10, Example 16, read-out: GIP-1 Receptor EC50.
[9] abbreviates: Table 12, Example 19, read-out: EC50 (cAMP, nmole) GLPR.
The mark [10] stands for this setting: Table 12, Example 19, read-out: EC50 (cAMP, nmole) GIPR.

Read-outs that look alike come from different tables or passages of the source. *1 amine or outer side, *2 acyl side, *3 side chain or, on linkers, in order; H or OH if unused. Where a SMILES comes first, the peptide text is derived from it. Where no end group is shown, it is not given here. Side-chain parts run from the residue outwards. [ ]: non-standard residue; d: D form. The star is where a group is joined. γGlu = O=C(O)[C@H](CCC(=O)[*:2])N[*:1]; X6 = CCCCCCCCCCCCCCCCC(CC(=O)*)C(=O)O; Palmitoyl = CCCCCCCCCCCCCCCC(=O)*; Aib = CC(C)(N)C(=O)O

What is called EC50 is the concentration at which the effect is half-maximal.

T1 sequence (P47871 26-477): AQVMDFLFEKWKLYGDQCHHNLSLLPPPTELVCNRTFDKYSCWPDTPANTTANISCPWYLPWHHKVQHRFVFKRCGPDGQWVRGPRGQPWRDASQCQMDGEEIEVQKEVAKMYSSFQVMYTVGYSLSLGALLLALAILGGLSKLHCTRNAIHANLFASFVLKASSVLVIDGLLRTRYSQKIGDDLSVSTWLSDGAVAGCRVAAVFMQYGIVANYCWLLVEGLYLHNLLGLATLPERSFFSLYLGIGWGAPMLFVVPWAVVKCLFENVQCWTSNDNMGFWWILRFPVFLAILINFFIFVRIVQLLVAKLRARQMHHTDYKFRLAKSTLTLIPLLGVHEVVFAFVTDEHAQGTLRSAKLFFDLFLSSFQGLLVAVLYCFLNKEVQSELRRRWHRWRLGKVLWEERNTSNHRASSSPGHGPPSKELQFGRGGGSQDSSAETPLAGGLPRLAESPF

Turning to “Example 8 peptide: Tyr1, AIB2, Glu16/Lys20 lactam, Leu-Ala-Gly 27-29, GPSSGAPPPS 30-39, or a peptide lacking a lactam [mt-219]”, in assay [1], the GR relative activity is listed as 0.65%. Further, the figures for the EC50 in assay [2] (setting [4]) and in assay [3] (setting [5]) were 0.151 nM and 6.17 nM, respectively. The molecule further came in with a GLP-1R relative activity in assay [2] of 16.56%. Besides, the GIPR relative activity entry in assay [3] is reported as “.31%”.

For “H[Aib]QGTFTSDYSKYLDERAAQDFVQWLLDGGPSSGAPPPSK(X6)G-NH2 [SEQ ID NO: 156]”, the EC50 in assay [1] is 0.003 nM; in assay [2] (GLP-1 Receptor EC50, Table 11, Example 18) it was 0.003 nM; in assay [3] (GIP Receptor EC50, Table 11, Example 18) it was 0.006 nM.

“Example 8 peptide: Tyr1, AIB2, Glu16/Lys20 lactam, Leu-Ala-Gly 27-29, GPSSGAPPPS 30-39, or a peptide lacking a lactam [mt-217]” returned a GR relative activity in assay [1] of 0.82%. The results for the EC50 in assay [2] (setting [4]) and in assay [3] (setting [5]) were 0.222 nM and 9.57 nM, respectively. For the same molecule, the GLP-1R relative activity in assay [2] came out at 11.26%. Also, the GIPR relative activity in assay [3] was 0.20%.

As for `CCCCCCCCCCCCCCCC(=O)N[C@@H](CCC(=O)NCCCC[C@H](NC(=O)[C@H](CC(=O)O)NC(=O)[C@H](CC(C)C)NC(=O)[C@H](Cc1ccc(O)cc1)NC(=O)[C@H](CCCCN)NC(=O)[C@H](CO)NC(=O)[C@H](Cc1ccc(O)cc1)NC(=O)[C@H](CC(=O)O)NC(=O)[C@H](CO)NC(=O)[C@@H](NC(=O)[C@H](Cc1ccccc1)NC(=O)[C@@H](NC(=O)CNC(=O)[C@H](CCC(N)=O)NC(=O)C(C)(C)NC(=O)[C@@H](N)Cc1c[nH]cn1)[C@@H](C)O)[C@@H](C)O)C(=O)N[C@@H](CCCNC(=N)N)C(=O)N[C@@H](C)C(=O)N[C@@H](C)C(=O)N[C@@H](CCC(N)=O)C(=O)N[C@@H](CC(=O)O)C(=O)N[C@@H](Cc1ccccc1)C(=O)N[C@H](C(=O)N[C@@H](CCC(N)=O)C(=O)N[C@@H](Cc1c[nH]c2ccccc12)C(=O)N[C@@H](CC(C)C)C(=O)N[C@@H](CC(C)C)C(=O)N[C@@H](CC(=O)O)C(=O)NCC(=O)NCC(=O)N1CCC[C@H]1C(=O)N[C@@H](CO)C(=O)N[C@@H](CO)C(=O)NCC(=O)N[C@@H](C)C(=O)N1CCC[C@H]1C(=O)N1CCC[C@H]1C(=O)N1CCC[C@H]1C(=O)N[C@@H](CO)C(N)=O)C(C)C)C(=O)O` [SEQ ID NO: 153] (H-H[Aib]QGTFTSDYSKYLDK([γGlu-Palmitoyl])RAAQDFVQWLLDGGPSSGAPPPS-NH2; N-terminus assumed), the values for the concentration for a half-maximal effect (EC50) in assay [1] (setting [6]), in assay [2] (setting [7]) and in assay [3] (setting [8]) were 0.012 nM, 0.007 nM and 0.276 nM, respectively.

With `CCCCCCCCCCCCCCCC(=O)N[C@@H](CCC(=O)NCCCC[C@H](NC(=O)[C@H](CCCCN)NC(=O)[C@H](CO)NC(=O)[C@H](Cc1ccc(O)cc1)NC(=O)[C@H](CC(=O)O)NC(=O)[C@H](CO)NC(=O)[C@@H](NC(=O)[C@H](Cc1ccccc1)NC(=O)[C@@H](NC(=O)CNC(=O)[C@H](CCC(N)=O)NC(=O)C(C)(C)NC(=O)[C@@H](N)Cc1c[nH]cn1)[C@@H](C)O)[C@@H](C)O)C(=O)N[C@@H](CC(C)C)C(=O)N[C@@H](CC(=O)O)C(=O)N[C@@H](CCC(=O)O)C(=O)N[C@@H](CCCNC(=N)N)C(=O)N[C@@H](C)C(=O)N[C@@H](C)C(=O)N[C@@H](CCC(N)=O)C(=O)N[C@@H](CC(=O)O)C(=O)N[C@@H](Cc1ccccc1)C(=O)N[C@H](C(=O)N[C@@H](CCC(N)=O)C(=O)N[C@@H](Cc1c[nH]c2ccccc12)C(=O)N[C@@H](CC(C)C)C(=O)N[C@@H](CC(C)C)C(=O)N[C@@H](CC(=O)O)C(=O)NCC(=O)NCC(=O)N1CCC[C@H]1C(=O)N[C@@H](CO)C(=O)N[C@@H](CO)C(=O)NCC(=O)N[C@@H](C)C(=O)N1CCC[C@H]1C(=O)N1CCC[C@H]1C(=O)N1CCC[C@H]1C(=O)N[C@@H](CO)C(N)=O)C(C)C)C(=O)O` [SEQ ID NO: 151] (H-H[Aib]QGTFTSDYSKK([γGlu-Palmitoyl])LDERAAQDFVQWLLDGGPSSGAPPPS-NH2), the EC50 worked out at 0.008 nM in assay [1] (setting [6]), 0.004 nM in assay [2] (setting [7]) and 0.309 nM in assay [3] (setting [8]).

With `CCCCCCCCCCCCCCCC(=O)N[C@@H](CCC(=O)NCCCC[C@H](NC(=O)CC[C@H](NC(=O)CCCCCCCCCCCCCCC)C(=O)O)C(=O)NCCCC[C@H](NC(=O)[C@H](CC(=O)O)NC(=O)[C@H](CO)NC(=O)[C@@H](NC(=O)[C@H](Cc1ccccc1)NC(=O)[C@@H](NC(=O)CNC(=O)[C@H](CCC(N)=O)NC(=O)C(C)(C)NC(=O)[C@@H](N)Cc1c[nH]cn1)[C@@H](C)O)[C@@H](C)O)C(=O)N[C@@H](CO)C(=O)N[C@@H](CCCCN)C(=O)N[C@@H](Cc1ccc(O)cc1)C(=O)N[C@@H](CC(C)C)C(=O)N[C@@H](CC(=O)O)C(=O)N[C@@H](CCC(=O)O)C(=O)N[C@@H](CCCNC(=N)N)C(=O)N[C@@H](C)C(=O)N[C@@H](C)C(=O)N[C@@H](CCC(N)=O)C(=O)N[C@@H](CC(=O)O)C(=O)N[C@@H](Cc1ccccc1)C(=O)N[C@H](C(=O)N[C@@H](CCC(N)=O)C(=O)N[C@@H](Cc1c[nH]c2ccccc12)C(=O)N[C@@H](CC(C)C)C(=O)N[C@@H](CC(C)C)C(=O)N[C@@H](CC(=O)O)C(=O)NCC(=O)NCC(=O)N1CCC[C@H]1C(=O)N[C@@H](CO)C(=O)N[C@@H](CO)C(=O)NCC(=O)N[C@@H](C)C(=O)N1CCC[C@H]1C(=O)N1CCC[C@H]1C(=O)N1CCC[C@H]1C(=O)N[C@@H](CO)C(N)=O)C(C)C)C(=O)O` [SEQ ID NO: 160], the EC50 is 0.024 nM in assay [1] (Table 12, Example 19, read-out: EC50 (cAMP, nmole) GCGR); 0.007 nM in assay [2] (setting [9]); 0.015 nM in assay [3] (setting [10]).

As to `CCCCCCCCCCCCCCCC(=O)N[C@@H](CCC(=O)NCCCC[C@H](NC(=O)[C@H](CC(=O)O)NC(=O)[C@H](CO)NC(=O)[C@@H](NC(=O)[C@H](Cc1ccccc1)NC(=O)[C@@H](NC(=O)CNC(=O)[C@H](CCC(=O)O)NC(=O)C(C)(C)NC(=O)[C@@H](N)Cc1c[nH]cn1)[C@@H](C)O)[C@@H](C)O)C(=O)N[C@@H](CO)C(=O)N[C@@H](CCCCN)C(=O)N[C@@H](Cc1ccc(O)cc1)C(=O)N[C@@H](CC(C)C)C(=O)N[C@@H](CC(=O)O)C(=O)N[C@@H](CCC(=O)O)C(=O)N[C@@H](CCCNC(=N)N)C(=O)N[C@@H](C)C(=O)N[C@@H](C)C(=O)N[C@@H](CCC(N)=O)C(=O)N[C@@H](CC(=O)O)C(=O)N[C@@H](Cc1ccccc1)C(=O)N[C@H](C(=O)N[C@@H](CCC(N)=O)C(=O)N[C@@H](Cc1c[nH]c2ccccc12)C(=O)N[C@@H](CC(C)C)C(=O)N[C@@H](CC(C)C)C(=O)N[C@@H](CC(=O)O)C(=O)NCC(=O)NCC(=O)N1CCC[C@H]1C(=O)N[C@@H](CO)C(=O)N[C@@H](CO)C(=O)NCC(=O)N[C@@H](C)C(=O)N1CCC[C@H]1C(=O)N1CCC[C@H]1C(=O)N1CCC[C@H]1C(=O)N[C@@H](CO)C(N)=O)C(C)C)C(=O)O` [compound 39] (H-H[Aib]EGTFTSDK([γGlu-Palmitoyl])SKYLDERAAQDFVQWLLDGGPSSGAPPPS-NH2; N-terminus assumed), the EC50 in assay [1] (EC50 (nM) at Glucagon Receptor, Table 4, Example 9, composite of multiple different activity assays) is 1.28 nM; in assay [2] (EC50 (nM) at GLP-1 Receptor, Table 4, Example 9, composite of multiple different activity assays), 0.008 nM; in assay [3] (EC50 (nM) at GIP Receptor, Table 4, Example 9, composite of multiple different activity assays), 0.026 nM.

Consider `CCCCCCCCCCCCCCCC(=O)N[C@@H](CCC(=O)NCCCC[C@H](NC(=O)[C@H](CC(=O)O)NC(=O)[C@H](CO)NC(=O)[C@@H](NC(=O)[C@H](Cc1ccccc1)NC(=O)[C@@H](NC(=O)CNC(=O)[C@H](CCC(N)=O)NC(=O)C(C)(C)NC(=O)[C@@H](N)Cc1c[nH]cn1)[C@@H](C)O)[C@@H](C)O)C(=O)N[C@@H](CO)C(=O)N[C@@H](CCCCN)C(=O)N[C@@H](Cc1ccc(O)cc1)C(=O)N[C@@H](CC(C)C)C(=O)N[C@@H](CC(=O)O)C(=O)N[C@@H](CCC(=O)O)C(=O)N[C@@H](CCCNC(=N)N)C(=O)N[C@@H](C)C(=O)N[C@@H](C)C(=O)N[C@@H](CCC(N)=O)C(=O)N[C@@H](CC(=O)O)C(=O)N[C@@H](Cc1ccccc1)C(=O)N[C@H](C(=O)N[C@@H](CCC(N)=O)C(=O)N[C@@H](Cc1c[nH]c2ccccc12)C(=O)N[C@@H](CC(C)C)C(=O)N[C@@H](CC(C)C)C(=O)N[C@@H](CC(=O)O)C(=O)NCC(=O)NCC(=O)N1CCC[C@H]1C(=O)N[C@@H](CO)C(=O)N[C@@H](CO)C(=O)NCC(=O)N[C@@H](C)C(=O)N1CCC[C@H]1C(=O)N1CCC[C@H]1C(=O)N1CCC[C@H]1C(=O)N[C@@H](CO)C(N)=O)C(C)C)C(=O)O` [SEQ ID NO: 28], for which the EC50 in assay [1] (EC50 (nM) at glucagon receptor, Table 15, Example 23) turned out to be 0.002 nM; in assay [1] (EC50 (nM) at glucagon receptor, Table 16, Example 24), 0.003 nM; in assay [2] (EC50 (nM) at GLP-1 receptor, Table 15, Example 23), 0.002 nM; in assay [2] (setting [7]), 0.007 nM; in assay [2] (setting [9]) it was 0.003 nM; in assay [3] (EC50 (nM) at GIP receptor, Table 15, Example 23), 0.002 nM. The 50% effective concentration (EC50) in assay [3] (GIP (0.01), Table 8, Example 14, activity at the GIP receptor) is 0.003 nM; in assay [3] (setting [8]), 0.003 nM; in assay [3] (setting [10]), 0.007 nM.
